Values joined by “and” are separate entries in the source; they are usually repeats but may differ in a detail not shown here. Equal values may be shown once. Active and inactive are the calls of the source. For most assays here, no stated cut-off is given here; in the data, actives have a measured IC50 and inactives only a lower limit.
Assays:
Type in all cases: functional
[1] = target: Protein disulfide-isomerase (Homo sapiens, UniProt P07237); experiment: PDI inhibitors, insulin aggregation turbidity, dose response, biochemical, absorbance, cherry-picked samples (AID 602350)
Sequence of Protein disulfide-isomerase (P07237 whole entry): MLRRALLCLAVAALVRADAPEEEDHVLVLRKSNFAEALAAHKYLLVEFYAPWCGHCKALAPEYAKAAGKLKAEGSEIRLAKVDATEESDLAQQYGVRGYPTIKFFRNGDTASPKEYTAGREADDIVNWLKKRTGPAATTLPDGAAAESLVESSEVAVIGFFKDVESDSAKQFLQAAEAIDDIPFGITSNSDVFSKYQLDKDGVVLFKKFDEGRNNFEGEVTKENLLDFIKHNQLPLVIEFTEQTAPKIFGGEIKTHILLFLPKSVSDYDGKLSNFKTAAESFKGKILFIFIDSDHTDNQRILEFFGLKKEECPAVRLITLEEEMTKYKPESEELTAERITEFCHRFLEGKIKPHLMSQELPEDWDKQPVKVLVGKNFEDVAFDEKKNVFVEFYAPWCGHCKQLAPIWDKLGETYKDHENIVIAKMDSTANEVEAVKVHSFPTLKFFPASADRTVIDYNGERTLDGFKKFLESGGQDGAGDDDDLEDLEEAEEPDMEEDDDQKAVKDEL

Caspase-3 [2] = target: T1, Caspase-3 (Homo sapiens, UniProt P42574); experiment: SAR Analysis of small molecule inhibitors of Sentrin-specific proteases (SENPs) using a Caspase-3 Selectivity assay. [Related pubchem assays (depositor defined):AID2540, AID2599, AID434973, AID489001]
T1 sequence (P42574 whole entry): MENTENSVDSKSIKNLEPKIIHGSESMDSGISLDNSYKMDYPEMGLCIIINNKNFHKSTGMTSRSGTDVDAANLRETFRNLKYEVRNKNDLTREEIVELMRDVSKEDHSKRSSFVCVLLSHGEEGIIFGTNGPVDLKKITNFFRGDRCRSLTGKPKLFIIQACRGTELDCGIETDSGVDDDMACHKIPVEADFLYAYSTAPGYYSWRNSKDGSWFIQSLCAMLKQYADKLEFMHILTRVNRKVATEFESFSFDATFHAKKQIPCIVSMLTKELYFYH

[3] = target: T2, Sentrin-specific protease 7 (Homo sapiens, UniProt Q9BQF6); experiment: SENP7 protease inhibitors, SAR follow-up, biochemical, luminescence, set 2 (AID 588600)
T2 sequence (Q9BQF6 whole entry): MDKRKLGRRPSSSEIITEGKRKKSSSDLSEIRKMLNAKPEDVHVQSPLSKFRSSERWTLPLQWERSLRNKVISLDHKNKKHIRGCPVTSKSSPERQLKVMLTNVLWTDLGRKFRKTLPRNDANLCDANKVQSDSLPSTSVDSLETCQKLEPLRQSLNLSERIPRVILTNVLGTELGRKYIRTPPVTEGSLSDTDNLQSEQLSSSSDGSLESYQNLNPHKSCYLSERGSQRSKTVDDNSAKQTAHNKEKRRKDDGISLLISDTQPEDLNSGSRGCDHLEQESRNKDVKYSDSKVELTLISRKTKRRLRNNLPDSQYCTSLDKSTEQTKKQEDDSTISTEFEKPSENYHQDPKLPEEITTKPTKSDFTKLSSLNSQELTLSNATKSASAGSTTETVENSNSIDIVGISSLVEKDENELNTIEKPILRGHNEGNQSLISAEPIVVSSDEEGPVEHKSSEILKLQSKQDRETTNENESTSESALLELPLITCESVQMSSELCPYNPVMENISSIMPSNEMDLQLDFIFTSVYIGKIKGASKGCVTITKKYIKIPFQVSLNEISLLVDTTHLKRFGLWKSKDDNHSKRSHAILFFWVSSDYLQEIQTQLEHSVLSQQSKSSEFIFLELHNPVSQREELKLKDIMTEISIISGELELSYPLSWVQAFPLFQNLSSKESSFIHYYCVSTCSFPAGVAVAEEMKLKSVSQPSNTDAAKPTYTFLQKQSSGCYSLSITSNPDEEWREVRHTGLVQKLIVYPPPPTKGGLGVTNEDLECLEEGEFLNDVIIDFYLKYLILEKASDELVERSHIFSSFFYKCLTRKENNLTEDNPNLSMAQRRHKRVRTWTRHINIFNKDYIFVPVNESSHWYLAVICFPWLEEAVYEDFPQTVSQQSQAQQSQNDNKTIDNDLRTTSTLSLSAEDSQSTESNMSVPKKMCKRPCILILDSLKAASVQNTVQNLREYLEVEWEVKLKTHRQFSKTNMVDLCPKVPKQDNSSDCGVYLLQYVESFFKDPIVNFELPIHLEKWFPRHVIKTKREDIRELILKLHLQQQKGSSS

[4] = target: T3, Sentrin-specific protease 8 (Homo sapiens, UniProt Q96LD8); experiment: SENP8 protease inhibitors, SAR follow-up, biochemical, luminescence (AID 504501)
T3 sequence (Q96LD8 whole entry): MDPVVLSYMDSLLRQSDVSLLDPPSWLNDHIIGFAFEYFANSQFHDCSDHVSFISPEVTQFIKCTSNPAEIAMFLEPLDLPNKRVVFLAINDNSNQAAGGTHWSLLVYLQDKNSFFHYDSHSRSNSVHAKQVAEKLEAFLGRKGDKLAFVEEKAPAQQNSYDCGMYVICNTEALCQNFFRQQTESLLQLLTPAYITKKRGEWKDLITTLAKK

[5] = target: T4, Sentrin-specific protease 6 (Homo sapiens, UniProt Q9GZR1); experiment: SENP6 protease inhibitors, SAR follow-up, biochemical, luminescence, set 2 (AID 588598)
T4 sequence (Q9GZR1 whole entry): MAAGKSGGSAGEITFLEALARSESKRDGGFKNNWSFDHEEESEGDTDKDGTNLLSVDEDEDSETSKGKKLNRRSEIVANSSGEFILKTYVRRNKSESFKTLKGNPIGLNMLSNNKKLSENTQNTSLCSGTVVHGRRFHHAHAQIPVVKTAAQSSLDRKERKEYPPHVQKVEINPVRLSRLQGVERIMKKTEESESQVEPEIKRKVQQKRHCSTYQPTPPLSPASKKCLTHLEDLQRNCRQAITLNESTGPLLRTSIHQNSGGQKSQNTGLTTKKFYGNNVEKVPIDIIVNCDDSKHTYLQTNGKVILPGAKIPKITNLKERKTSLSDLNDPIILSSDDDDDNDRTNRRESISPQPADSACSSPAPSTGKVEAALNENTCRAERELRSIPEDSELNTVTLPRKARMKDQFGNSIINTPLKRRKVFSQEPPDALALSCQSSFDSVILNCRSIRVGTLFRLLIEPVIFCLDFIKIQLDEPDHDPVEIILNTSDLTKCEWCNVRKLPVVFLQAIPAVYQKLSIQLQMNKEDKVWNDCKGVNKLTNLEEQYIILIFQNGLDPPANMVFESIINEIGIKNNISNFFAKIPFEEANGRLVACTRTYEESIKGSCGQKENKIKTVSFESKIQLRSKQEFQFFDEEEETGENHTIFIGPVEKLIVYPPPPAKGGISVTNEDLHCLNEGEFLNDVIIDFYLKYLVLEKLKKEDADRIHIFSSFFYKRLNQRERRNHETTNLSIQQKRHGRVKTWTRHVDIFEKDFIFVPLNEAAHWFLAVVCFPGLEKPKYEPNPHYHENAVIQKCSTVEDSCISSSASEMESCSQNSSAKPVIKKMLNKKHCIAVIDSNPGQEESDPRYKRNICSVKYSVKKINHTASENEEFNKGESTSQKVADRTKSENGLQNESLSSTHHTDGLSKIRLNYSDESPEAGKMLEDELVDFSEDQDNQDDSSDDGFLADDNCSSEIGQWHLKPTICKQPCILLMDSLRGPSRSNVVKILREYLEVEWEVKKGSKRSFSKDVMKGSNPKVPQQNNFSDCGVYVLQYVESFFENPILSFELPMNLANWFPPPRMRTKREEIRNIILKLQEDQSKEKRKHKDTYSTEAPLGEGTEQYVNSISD

[6] = target: T3, Sentrin-specific protease 8; experiment: SENP8 protease inhibitors, SAR follow-up, biochemical, luminescence, set 2 (AID 588601)
[7] = target: T4, Sentrin-specific protease 6; experiment: SAR Analysis of small molecule inhibitors of Sentrin-specific protease 6 (SENP6) using a Luminescent assay. [Related pubchem assays (depositor defined):AID2582, AID2599]
Caspase-3 [8] = target: T1, Caspase-3; experiment: caspase-3 inhibitors as off-family protease, SAR follow-up, selectivity assay for SENP protease inhibitor project, biochemical, luminescence, set 2 (AID 588599)
[9] = target: T2, Sentrin-specific protease 7; experiment: SENP7 protease inhibitors, SAR follow-up, biochemical, luminescence (AID 504497)
[10] = target: Apoptotic protease-activating factor 1 (Homo sapiens, UniProt O14727); experiment: SAR analysis of small molecule Activators of Apaf-1 in a Fluorescent assay.; conditions: read-out: EC50_Mean;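 further: caspase-3 cleavage of fluorogenic Rh110 DEVD substrate downstream of apoptosome activation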
Sequence of Apoptotic protease-activating factor 1 (O14727 whole entry): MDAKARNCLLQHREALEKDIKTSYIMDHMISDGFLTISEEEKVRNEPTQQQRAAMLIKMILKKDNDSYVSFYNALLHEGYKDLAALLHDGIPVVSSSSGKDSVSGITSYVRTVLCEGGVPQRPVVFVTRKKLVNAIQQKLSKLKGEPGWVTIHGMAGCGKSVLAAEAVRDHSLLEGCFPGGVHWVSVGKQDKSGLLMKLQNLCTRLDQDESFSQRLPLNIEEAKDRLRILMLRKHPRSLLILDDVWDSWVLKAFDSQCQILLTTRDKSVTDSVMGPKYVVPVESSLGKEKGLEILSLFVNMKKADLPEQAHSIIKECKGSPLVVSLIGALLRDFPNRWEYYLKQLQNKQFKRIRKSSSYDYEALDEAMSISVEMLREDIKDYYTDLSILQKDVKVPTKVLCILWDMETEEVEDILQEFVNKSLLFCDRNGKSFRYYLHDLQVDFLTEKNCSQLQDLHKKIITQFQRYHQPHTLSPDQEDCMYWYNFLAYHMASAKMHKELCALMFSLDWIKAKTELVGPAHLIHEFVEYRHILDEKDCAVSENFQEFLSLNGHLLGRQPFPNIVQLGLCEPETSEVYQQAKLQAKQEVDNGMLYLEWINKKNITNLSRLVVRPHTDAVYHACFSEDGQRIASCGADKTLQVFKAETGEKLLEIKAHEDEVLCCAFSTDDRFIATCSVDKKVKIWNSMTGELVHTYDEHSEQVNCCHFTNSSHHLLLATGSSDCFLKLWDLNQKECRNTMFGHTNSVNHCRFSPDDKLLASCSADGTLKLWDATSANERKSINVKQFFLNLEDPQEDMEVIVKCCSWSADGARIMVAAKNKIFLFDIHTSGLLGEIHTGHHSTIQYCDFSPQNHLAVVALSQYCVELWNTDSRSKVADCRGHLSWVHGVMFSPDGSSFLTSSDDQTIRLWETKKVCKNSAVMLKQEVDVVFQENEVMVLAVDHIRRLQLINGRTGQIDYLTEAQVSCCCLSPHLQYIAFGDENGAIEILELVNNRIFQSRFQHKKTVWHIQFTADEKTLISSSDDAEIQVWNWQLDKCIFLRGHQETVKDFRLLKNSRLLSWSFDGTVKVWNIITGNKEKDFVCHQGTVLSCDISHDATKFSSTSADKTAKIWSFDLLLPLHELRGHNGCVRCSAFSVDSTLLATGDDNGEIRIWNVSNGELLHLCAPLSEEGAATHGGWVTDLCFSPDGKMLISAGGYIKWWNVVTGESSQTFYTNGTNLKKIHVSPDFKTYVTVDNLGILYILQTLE

[11] = AlphaScreen signal interference compounds, dose response, artefact control for ARNT-TACC3 interaction inhibitor project, biochemical, luminescence, cherry-pick (AID 651705);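 further: AlphaScreen bead proximity signal that flags compounds interfering with the detection technology; potency reflects signal decrease which marks the compound as an assay artifact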

Compound	AC50 [1]	IC50 [3]	IC50 [5]	IC50 [6]	IC50 (Caspase-3 [8])	other results
C[C@@H]1CN([C@@H](C)CO)C(=O)c2cccc(NS(C)(=O)=O)c2O[C@H]1CN(C)Cc1ccc(Oc2ccccc2)cc1	19.5 µM (active) and 7.04 µM (active)					
CCN(CC)c1ccc(/C=C/c2noc(-c3ccccc3O)n2)cc1		> 99 µM (inactive)	30.7 µM (active)	> 99 µM (inactive)	> 99 µM (inactive)	IC50 (Caspase-3 [2]): 48 µM (active); IC50 [4]: 43 µM (active); IC50 [7]: 35 µM (active); IC50 [9]: 14 µM (active)
CCOc1cc(/C=C(/C#N)c2nc(-c3ccc(C)cc3)no2)cc(Cl)c1O		> 99 µM (inactive)	> 99 µM (inactive)	> 99 µM (inactive)	> 99 µM (inactive)	
C[C@H](CO)N1C[C@H](C)[C@H](CN(C)Cc2ccccc2)Oc2ccc(NC(=O)Nc3ccccc3)cc2CC1=O	19.5 µM (active)					
Cc1cc(C)n(C(C)CC(=O)Nc2cccnc2)n1 (stereo unspecified)						EC50 [10]: > 100 µM (inactive)
CCCCCC/C=N/Nc1nnc(Cc2ccc(OC)c(OC)c2)c(O)n1						AC50 [11]: 132 µM (active)

From ChEMBL document CHEMBL1201862, “PubChem BioAssay data set” (2004)
